Common to all, as to assay type: biochemical
One assay has as its target T1, KDM4B (JMJD2B) (Homo sapiens, UniProt O94953).
T1 construct: 2-500; purchased BPS; host or cells: Bac (baculovirus system)
T1 sequence (O94953 2-500): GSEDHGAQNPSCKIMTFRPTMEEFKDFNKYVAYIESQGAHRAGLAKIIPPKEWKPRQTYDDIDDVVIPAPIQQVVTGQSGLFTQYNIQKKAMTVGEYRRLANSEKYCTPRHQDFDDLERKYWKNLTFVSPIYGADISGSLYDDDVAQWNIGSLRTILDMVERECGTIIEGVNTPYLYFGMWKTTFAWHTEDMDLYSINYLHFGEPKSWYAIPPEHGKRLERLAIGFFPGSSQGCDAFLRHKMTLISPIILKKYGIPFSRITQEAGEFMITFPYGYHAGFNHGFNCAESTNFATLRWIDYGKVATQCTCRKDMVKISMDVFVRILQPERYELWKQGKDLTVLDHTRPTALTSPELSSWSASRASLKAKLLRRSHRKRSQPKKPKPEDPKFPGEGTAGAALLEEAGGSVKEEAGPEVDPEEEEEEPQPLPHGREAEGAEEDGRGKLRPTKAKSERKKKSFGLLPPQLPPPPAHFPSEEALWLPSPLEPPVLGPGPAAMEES
Nature of the assay: Histone lysine demethylase AlphaLISA assay, KDM4B. Particulars: read-out: KDM4B HDME Inhibition IC50. An outline of the steps:
(§1)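 Biotinylated methylated H3 peptides (K9, K4, K27 or K36 marks) served as substrate, with 25 μM L-Asc and 10 μM α-KG. Enzymes were preincubated 10 min, then exposed to compounds (3% DMSO solutions) 10 min; product detected by AlphaLISA acceptor and streptavidin donor beads at room temperature in dark.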

A further assay addresses T2, KDM3A (JMJD1A) (Homo sapiens, UniProt Q9Y4C1).
T2 construct: 2-end; purchased BPS Bioscience, US; host or cells: Bac (baculovirus system)
T2 sequence (Q9Y4C1 2-1321 limits assumed): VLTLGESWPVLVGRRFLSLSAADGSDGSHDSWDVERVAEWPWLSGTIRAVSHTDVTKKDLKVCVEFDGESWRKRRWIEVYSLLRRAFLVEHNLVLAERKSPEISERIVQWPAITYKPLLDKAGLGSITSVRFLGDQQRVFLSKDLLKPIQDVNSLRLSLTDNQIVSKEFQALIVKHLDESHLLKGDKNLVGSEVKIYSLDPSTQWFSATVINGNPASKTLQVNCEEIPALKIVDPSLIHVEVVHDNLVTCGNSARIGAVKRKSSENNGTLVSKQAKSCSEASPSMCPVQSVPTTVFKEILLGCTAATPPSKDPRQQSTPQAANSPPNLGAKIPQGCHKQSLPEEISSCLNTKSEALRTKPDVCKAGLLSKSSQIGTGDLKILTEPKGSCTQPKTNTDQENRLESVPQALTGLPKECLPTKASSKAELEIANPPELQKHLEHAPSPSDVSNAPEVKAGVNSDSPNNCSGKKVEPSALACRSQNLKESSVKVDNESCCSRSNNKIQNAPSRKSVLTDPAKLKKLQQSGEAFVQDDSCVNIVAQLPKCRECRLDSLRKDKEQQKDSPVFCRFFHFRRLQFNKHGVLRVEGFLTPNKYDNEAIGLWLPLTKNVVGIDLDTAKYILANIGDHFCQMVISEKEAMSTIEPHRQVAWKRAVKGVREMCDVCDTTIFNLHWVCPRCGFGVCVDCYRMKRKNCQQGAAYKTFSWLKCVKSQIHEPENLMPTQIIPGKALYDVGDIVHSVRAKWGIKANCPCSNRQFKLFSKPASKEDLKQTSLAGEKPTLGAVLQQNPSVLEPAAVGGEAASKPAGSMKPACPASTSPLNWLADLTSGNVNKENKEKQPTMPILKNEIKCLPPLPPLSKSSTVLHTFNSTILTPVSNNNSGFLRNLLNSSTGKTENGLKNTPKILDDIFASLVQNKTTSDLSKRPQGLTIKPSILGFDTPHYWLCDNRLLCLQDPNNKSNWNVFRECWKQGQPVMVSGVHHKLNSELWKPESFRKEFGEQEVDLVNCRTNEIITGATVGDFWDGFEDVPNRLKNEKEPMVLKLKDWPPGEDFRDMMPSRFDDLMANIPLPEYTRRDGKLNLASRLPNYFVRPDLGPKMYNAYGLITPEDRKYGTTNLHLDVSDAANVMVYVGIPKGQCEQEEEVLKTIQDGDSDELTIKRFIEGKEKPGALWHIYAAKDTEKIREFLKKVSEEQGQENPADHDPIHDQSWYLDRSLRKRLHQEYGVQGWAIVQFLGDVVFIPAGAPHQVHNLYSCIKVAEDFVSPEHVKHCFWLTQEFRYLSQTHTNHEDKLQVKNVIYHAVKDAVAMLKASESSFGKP
Nature of the assay: Histone lysine demethylase AlphaLISA assay, KDM3A. Particulars: read-out: KDM3 A HDME Inhibition IC50. An outline of the steps: as §1

In the next assay the target is T3, KDM4A (JMJD2A) (Homo sapiens, UniProt O75164).
T3 construct: 1-350; purchased BPS Bioscience, US; host or cells: E. coli
T3 sequence (O75164 1-350): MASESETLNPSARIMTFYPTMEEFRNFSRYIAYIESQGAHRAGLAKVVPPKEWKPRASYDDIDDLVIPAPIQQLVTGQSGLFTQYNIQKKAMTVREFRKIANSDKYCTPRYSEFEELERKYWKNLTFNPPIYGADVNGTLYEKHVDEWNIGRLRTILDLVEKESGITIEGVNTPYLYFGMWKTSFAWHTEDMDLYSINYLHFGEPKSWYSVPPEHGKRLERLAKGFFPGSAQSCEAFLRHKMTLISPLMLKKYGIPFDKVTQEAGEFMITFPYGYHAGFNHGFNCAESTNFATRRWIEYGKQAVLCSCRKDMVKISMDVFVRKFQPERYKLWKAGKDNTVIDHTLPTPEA
Nature of the assay: Histone lysine demethylase AlphaLISA assay, KDM4A. Particulars: read-out: KDM4A HDME Inhibition IC50. An outline of the steps:
as §1

The structures appear in SMILES notation.

As to `CCN1CCCC1CNC(=O)CNCc1cc(/C=N/C2CC2)ccn1` (stereo not drawn) [Compound 51, 2-[({4-[N-cyclopropyl-carboximidoyl]-pyridin-2-yl}methyl)-amino]-N-[(1-ethylpyrrolidin-2-yl)methyl]acetamide], the results for the 50% inhibitory concentration (IC50) on KDM4B (JMJD2B), on KDM3A (JMJD1A) and at KDM4A (JMJD2A) were less than 250 nM, greater than 2500 nM and 250 to 2500 nM, respectively.
Turning to `CCN(CCN(C)C)C(=O)CNCc1cc(/C=N/CCO)ccn1` [Compound 66], the IC50 was less than 250 nM on KDM4B (JMJD2B), greater than 2500 nM on KDM3A (JMJD1A) and less than 250 nM on KDM4A (JMJD2A).
With `O=C(CNCc1cc(/C=N/C2CC2)ccn1)N1CCC(Cc2ccccc2)CC1` [Compound 55, 1-(4-benzylpiperidin-1-yl)-2-[({4-[N-cyclopropyl-carboximidoyl]-pyridin-2-yl}methyl)amino]-ethan-1-one], the concentration for half-maximal inhibition (IC50) on KDM4B (JMJD2B) was less than 250 nM; at KDM3A (JMJD1A) it was greater than 2500 nM; at KDM4A (JMJD2A), 250 to 2500 nM.
Take `CCN(CC)CCCCNCc1cc(/C=N/CCO)ccn1` [Compound 61, 2-[{[2-({[4-(diethylamino)-butyl]amino}-methyl)pyridin-4-yl]methylidene}-amino]ethan-1-ol]: the IC50 was less than 250 nM on KDM4B (JMJD2B), greater than 2500 nM on KDM3A (JMJD1A) and greater than 2500 nM on KDM4A (JMJD2A).
As to `CCN(CC)CCCCNCc1cc(CNC(=O)C(F)(F)F)ccn1` [Compound 1, N-{[2-({[4-(diethylamino)butyl]-amino}methyl)pyridin-4-yl]methyl}-2,2,2-trifluoroacetamide], the IC50 on KDM4B (JMJD2B) is less than 250 nM; on KDM3A (JMJD1A), greater than 2500 nM; at KDM4A (JMJD2A), 250 to 2500 nM.

Values taken from patent publication US9650339B2, “Inhibitors of histone demethylases” (Gilead Sciences, Inc., priority 2013, dated 2017).
